Assay results published in patent US10583143B2, “Methods and compositions for the treatment or prevention of abnormal bone formation in a soft tissue” (THE BRIGHAM AND WOMEN'S HOSPITAL, INC., priority 2015, dated 2020).
“Also recorded” adds a separate entry of the source.

Assays:
[1] = test system: constitutively activated ALK1-5; test: Cell-based luciferase reporter assays with constitutively activated ALK1-5, potency comparison; conditions: ALK1-5, BRE-Luc / CAGA-Luc
Text: […]. Inhibition curves of BMP and TGF-β transcriptional activity mediated by constitutively activated ALK1-5 in a cell-based luciferase reporter assays. […]. Data shown are representative of more than 3 independent experiments, with data plotted as mean±S.E.M. (n=3 replicates)
C2C12 myofibroblast cells stably expressing firefly luciferase under the control of BMP-responsive promoter element (BRE-Luc) were generously provided by Dr. Peter ten Dijke (Leiden University Medical Center, NL). Human embryonic kidney 293T cells stably transfected with the TGF-β-responsive element fused to luciferase gene (CAGA-Luc) were a kind gift of Dr. Howard Weiner (Brigham and Women's Hospital, Boston, Mass.). C2C12 Bre-Luc and 293T CAGA-Luc cells were seeded at 20,000 cells in DMEM supplemented with 2% FBS per well in tissue culture treated 96-well plates (Costar® 3610; Corning). The cells were incubated for 1 h (37° C. and 10% CO2) and allowed to settle and attach. […]. Cells were then incubated for 30 min. […] Media was discarded and firefly luciferase activity was measured (Promega™) according to manufacturer's protocol. Light output was measured using a Spectramax™ L luminometer (Molecular Devices™) with an integration time of one second per well. […]

ALK5/TGFBR1 = target: T1, ALK5/TGFBR1 (Homo sapiens, UniProt P36897, T204D); test: CAGA-Luc luciferase reporter in HEK293 cells driven by constitutively active ALK5; assay type: cell-based; conditions: Ad.caALK5, read-out: IC50 inhibition of caALK5 activity (CAGA-Luc)
T1 construct: expressed in transfected cells; host or cells: 293T CAGA-Luc cells infected with Ad.caALK5 (gift of Dr. Akiko Hata)
T1 sequence (P36897 34-503 T204D): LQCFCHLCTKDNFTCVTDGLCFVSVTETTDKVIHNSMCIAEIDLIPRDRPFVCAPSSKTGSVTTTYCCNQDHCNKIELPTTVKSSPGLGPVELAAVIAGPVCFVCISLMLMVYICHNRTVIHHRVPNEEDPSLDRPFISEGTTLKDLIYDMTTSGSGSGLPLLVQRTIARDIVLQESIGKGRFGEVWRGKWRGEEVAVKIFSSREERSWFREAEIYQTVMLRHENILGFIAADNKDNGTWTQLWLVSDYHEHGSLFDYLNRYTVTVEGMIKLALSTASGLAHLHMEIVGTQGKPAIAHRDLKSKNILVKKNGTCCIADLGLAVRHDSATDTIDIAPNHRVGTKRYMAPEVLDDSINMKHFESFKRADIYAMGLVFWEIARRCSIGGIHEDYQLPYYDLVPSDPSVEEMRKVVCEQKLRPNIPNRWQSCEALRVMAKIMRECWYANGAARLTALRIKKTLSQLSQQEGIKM
Procedure: (§1) Inhibition of BMP-mediated gene transcription was measured via the activity of a BMP-response element luciferase reporter (BRE-Luc) stably expressed in the C2C12 cell line as a measure of BMP signaling inhibition, with gene expression being driven by constitutively active (ca-) forms of BMP type I receptors ALK1, ALK2, and ALK3 (FIG. 1). This was measured in comparison to the inhibition of TGF-β or Activin signaling via CAGA-Luc reporter construct stably expressed in HEK293 cells, with gene expression being driven by constitutively active (ca-) forms of Activin/TGF=β type I receptors ALK4 or ALK5 (FIG. 1). […]. C2C12 myofibroblast cells stably expressing firefly luciferase under the control of BMP-responsive promoter element (BRE-Luc) were generously provided by Dr. Peter ten Dijke (Leiden University Medical Center, NL). Human embryonic kidney 293T cells stably transfected with the TGF-β-responsive element fused to luciferase gene (CAGA-Luc) were a kind gift of Dr. Howard Weiner (Brigham and Women's Hospital, Boston, Mass.). […] Media was discarded and firefly luciferase activity was measured (Promega™) according to manufacturer's protocol. Light output was measured using a Spectramax™ L luminometer (Molecular Devices™) with an integration time of one second per well. […]

[2] = test system: ACVR1^[R206H]FlEx/+] knock-in mice; test: ACVR1^[R206H]FlEx/+] knock-in mouse model of FOP
Procedure: Mice were maintained in accordance with Institutional Animal Care and Use Committee guidelines under approved experimental protocols. […] Heterotopic bone formation in these mice was introduced via single retro-popliteal injection of adenoviral Cre-recombinase at 1×10^8 PFU at postnatal day 7 (P7). […] Bone formation as a function of a loss of passive range of motion, via dorsiflexion of the left ankle joint was assessed daily. […] On day 35 for inducible ACVR1^Q207D mice, and on day 90-120 for inducible ACVR1^R206H mice were sacrificed and imaged via X-ray radiography (MS FX In-Vivo Pro: Carestream Health). Micro-computed tomography (micro-CT) imaging was carried out on samples fixed overnight in 1% paraformaldehyde followed by scanning (μCT35, ScanCo).

ALK4/ACVR1B = target: T2, ALK4/ACVR1B (Homo sapiens, UniProt P36896); test: CAGA-Luc luciferase reporter in HEK293 cells driven by constitutively active ALK4; assay type: cell-based; conditions: Ad.caALK4, read-out: IC50 inhibition of caALK4 activity (CAGA-Luc)
T2 sequence (P36896 1-505 T206D): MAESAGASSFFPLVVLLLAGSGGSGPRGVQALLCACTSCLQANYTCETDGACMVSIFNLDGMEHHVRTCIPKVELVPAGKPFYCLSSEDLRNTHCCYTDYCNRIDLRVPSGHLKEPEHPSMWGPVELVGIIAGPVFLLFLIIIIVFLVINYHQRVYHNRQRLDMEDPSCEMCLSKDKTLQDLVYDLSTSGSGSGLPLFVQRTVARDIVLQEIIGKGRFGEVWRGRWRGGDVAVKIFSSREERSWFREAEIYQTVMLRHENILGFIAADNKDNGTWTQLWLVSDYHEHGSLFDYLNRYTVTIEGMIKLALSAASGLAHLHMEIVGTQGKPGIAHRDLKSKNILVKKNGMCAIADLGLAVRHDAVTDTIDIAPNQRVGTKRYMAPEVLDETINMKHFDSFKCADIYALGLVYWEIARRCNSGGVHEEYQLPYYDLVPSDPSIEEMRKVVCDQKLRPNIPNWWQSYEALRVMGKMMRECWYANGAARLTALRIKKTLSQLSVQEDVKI
Procedure: as §1

[3] = 60 mg to 250 mg p.o. per day; cited from earlier work
[4] = test system: ACVR1^Q207D (CAG-Z-EGFP-caALK2) transgenic mice; test: Inducible ACVR1^Q207D-Tg (CAG-Z-EGFP-caALK2) mouse model of heterotopic ossification / FOP; conditions: for heterotopic bone lesions on x-ray: 6 mg/kg i.p. twice daily; for passive range-of-motion: 6 mg/kg intraperitoneally twice daily
[5] = 25 mg/kg oral gavage daily for first 28 days only, observed up to 90 days
[6] = 25 mg/kg intraperitoneally twice daily for 28 days

Question: With `CN1CCN(CCOc2cc(OC3CCOCC3)c3c(Nc4c(Cl)ccc5c4OCO5)ncnc3c2)CC1` [AZD-0530, N-(5-chloro-1,3-benzodioxol-4-yl)-7-[2-(4-methylpiperazin-1-yl)ethoxy]-5-[(tetrahydro-2H-pyran-4-yl)oxy]quinazolin-4-amine] as the molecule, how does the “decreased potency against all receptors compared with LDN-193189” value [1] read?
Answer: The value was “approximately 10 fold”.

Question: And the IC50 (ALK5/TGFBR1)?
Answer: The IC50 was 220 nM.

Question: And the “change in weight compared to vehicle treated controls” value ([2]; 25 mg/kg oral gavage daily for 28 days)?
Answer: The value was “No statistically significant change”.

Question: And the “progressive loss of range of motion” value [2, 5]?
Answer: The value was “protected”.

Question: What about the radiographic bone formation [2, 5] of the same molecule?
Answer: Its radiographic bone formation is “protected”.

Question: What about the IC50 (ALK4/ACVR1B) of the same molecule?
Answer: The IC50 was 220 nM.

Question: And the “tolerability in healthy human adults” value [3]?
Answer: The value was “good tolerability”.

Question: With `c1ccc2c(-c3cnn4cc(-c5ccc(N6CCNCC6)cc5)cnc34)ccnc2c1` [LDN-193189] as the molecule, how does the “heterotopic bone lesions on x-ray” value [4] read?
Answer: The value was “preventing heterotopic bone lesions”.

Question: What about the passive range-of-motion [4] of the same molecule?
Answer: Its passive range-of-motion is “effective in preserving range of motion; also recorded: mobility was almost entirely preserved”.

Question: Which “heterotopic bone lesions on x-ray” value [4] does the source give for `c1cc(-c2cnn3cc(-c4ccc(N5CCNCC5)cc4)cnc23)c2cccnc2c1` [LDN-212854] here?
Answer: Its value is “preventing heterotopic bone lesions”.

Question: And the passive range-of-motion [4]?
Answer: The passive range-of-motion was “effective in preserving range of motion; also recorded: mobility was almost entirely preserved”.

Question: With `COc1cc2c(Nc3ccc(Br)cc3F)ncnc2cc1OCC1CCN(C)CC1` [ZD-6474] as the molecule, how does the radiographic heterotopic ossification [4, 6] read?
Answer: The radiographic heterotopic ossification was “did not significantly attenuate; also recorded: no evidence of improvement”.

Question: What about the range-of motion [4, 6] of the same molecule?
Answer: The range-of motion was “no evidence of improvement”.
